Laboratory results as given in PMC8495876 (ACS Omega, 2021).

Assays:
[1] = molecular target: α-glucosidase; conditions: previously reported; cited from earlier work
[2] = molecular target: human lysosomal α-glucosidase (Homo sapiens, UniProt P10253); assay: α-glucosidase inhibitory activity assay; format: biochemical; conditions: 1.43 mM compound; lysosomal α-glucosidase extracts; pH 4.0, 37 °C

Compound | IC50 [1] [µM] | α-glucosidase inhibition (%) [2] [%]
O=c1cc(-c2ccccc2)oc2cc(O)cc(O)c12 [chrysin] | 77 | 
1-(α-D-Glucopyranosyl)-4-cyano-phenyl-[1,2,3]-triazole [AGT3] |  | 46
1-(α-D-Glucopyranosyl)-4-nitro-phenyl-[1,2,3]-triazole [AGT5] |  | 57
